Experimental data reported in ChEMBL document CHEMBL3638997, “5-alkynyl-pyrimidines” (2013).

Target: Phosphatidylinositol 4,5-bisphosphate 3-kinase catalytic subunit alpha isoform (Homo sapiens, UniProt P42336)
Experiment: Filter-Binding-Assay: PI3Kalpha assay described herein provides IC50 values indicating the activity of the compounds inhibiting PI3 kinase alpha activity Inhibition of PI3 kinase is expected to be indicative of activity in treating conditions of excessive or anomalous cell proliferation, such as cancers. See also J. A. Engelman, Nature Reviews Cancer, 2009, 9, 550-562; A. Carnero, Expert Opin. …

Sequence of Phosphatidylinositol 4,5-bisphosphate 3-kinase catalytic subunit alpha isoform (P42336 whole entry, canonical isoform): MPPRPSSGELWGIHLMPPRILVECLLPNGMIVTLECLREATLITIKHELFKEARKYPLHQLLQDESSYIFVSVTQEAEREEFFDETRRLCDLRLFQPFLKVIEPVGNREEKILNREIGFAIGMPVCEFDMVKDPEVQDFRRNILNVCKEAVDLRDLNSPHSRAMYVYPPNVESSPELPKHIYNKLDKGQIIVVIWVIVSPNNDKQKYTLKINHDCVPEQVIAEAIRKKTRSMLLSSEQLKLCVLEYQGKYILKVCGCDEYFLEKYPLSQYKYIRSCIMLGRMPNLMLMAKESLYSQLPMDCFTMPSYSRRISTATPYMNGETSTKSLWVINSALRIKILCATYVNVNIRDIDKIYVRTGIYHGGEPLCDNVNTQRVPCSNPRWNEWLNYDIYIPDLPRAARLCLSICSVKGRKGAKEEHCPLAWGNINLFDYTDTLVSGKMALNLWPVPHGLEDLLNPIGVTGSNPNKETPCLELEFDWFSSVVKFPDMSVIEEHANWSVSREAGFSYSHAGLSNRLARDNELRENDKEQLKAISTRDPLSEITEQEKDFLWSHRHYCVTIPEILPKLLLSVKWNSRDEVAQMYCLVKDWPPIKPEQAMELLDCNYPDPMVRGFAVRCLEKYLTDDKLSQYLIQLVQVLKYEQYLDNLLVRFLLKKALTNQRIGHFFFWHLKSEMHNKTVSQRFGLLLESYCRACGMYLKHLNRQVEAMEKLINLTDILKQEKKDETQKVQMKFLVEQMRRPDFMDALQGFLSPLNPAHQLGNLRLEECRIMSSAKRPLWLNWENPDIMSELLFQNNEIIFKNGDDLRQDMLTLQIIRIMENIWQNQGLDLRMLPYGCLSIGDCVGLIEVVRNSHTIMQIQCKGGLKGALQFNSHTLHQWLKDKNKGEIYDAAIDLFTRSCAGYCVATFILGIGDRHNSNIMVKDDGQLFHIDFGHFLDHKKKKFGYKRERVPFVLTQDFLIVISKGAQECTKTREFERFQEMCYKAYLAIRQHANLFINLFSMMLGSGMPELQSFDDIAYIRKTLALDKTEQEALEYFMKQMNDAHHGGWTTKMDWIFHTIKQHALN

IC50: 0.015 µM
Compound: CCc1ncnc(N2CCC(O)(CC)CC2)c1C#Cc1ccc(N)nc1
